Measurements from US5422339A, “Peptides having insulin autoantibody but not insulin receptor binding capacity” (Joslin Diabetes Center, Inc., priority 1994, dated 1995).
“Also recorded” adds a separate entry of the source. No end group written: not given here.

System: human insulin autoantibodies
Test: Competition with 125I-human insulin for binding to human insulin autoantibodies (competitive binding radioassay)
Conditions: for affinity / recognition by human insulin autoantibodies: Type I diabetes-associated autoantibodies, relative to human insulin
Procedure: Insulin autoantibodies isolated from sera of well-characterized first-degree relatives of patients with Type I diabetes mellitus were analyzed in comparative studies by competition with a series of insulins from different species and with insulin analogues. Insulin binding activity was detected using a competitive binding radioassay and expressed in nU of insulin precipitated per ml of sera (1 nU/ml=7.18 fmole/L).

Substance	affinity / recognition by human insulin autoantibodies	competition with 125I-human insulin for binding to human insulin autoantibodies (autoantibodies isolated from sera of first-degree relatives of Type I diabetes patients)	potency in binding to insulin autoantibodies relative to human insulin
Guinea pig insulin: guinea pig insulin; differs from human insulin at 18 positions (Insulin B chain FVSRHLCGSNLVETLYSVCQDDGFFYIPKD; Insulin A chain GIVDQCCTGTCTRHQLQSYCN; ends and bridges not checked; cysteine pairing not given here; UniProt P01329 25-54; P01329 90-110, looked up)	essentially not recognized; also recorded: reduced	failed to compete	–
human proinsulin	–	–	at least as potent as human insulin
ovine insulins: ovine insulin; differs from human by three amino acids	high-affinity recognition; also recorded: minimal reduction	–	–
